Earlier results in patent publication EP3964225A1 (priority 2020, dated 2022).

Test system: B cell growth
Details: eight p17 peptides tested

In the case of “GARASVLSGGELDRWEKIRL [peptide F1, p17-derived peptide, aminoacids 2 to 21 of p17]”, the “cell growth promoting activity” value is listed as “the only one endowed with cell growth promoting activity”.
